The term IC50 denotes the concentration needed to halve the response being measured. A low value points to inhibition by little substance.

The source of these data is patent publication EP4471048A1, “PEPTIDE INHIBITORS OF INTERLEUKIN-23 RECEPTOR” (Zealand Pharma A/S, priority 2023, dated 2024).

The target of the test is T1, human IL-23R (Homo sapiens, UniProt Q5VWK5).
T1 sequence (Q5VWK5 22-629): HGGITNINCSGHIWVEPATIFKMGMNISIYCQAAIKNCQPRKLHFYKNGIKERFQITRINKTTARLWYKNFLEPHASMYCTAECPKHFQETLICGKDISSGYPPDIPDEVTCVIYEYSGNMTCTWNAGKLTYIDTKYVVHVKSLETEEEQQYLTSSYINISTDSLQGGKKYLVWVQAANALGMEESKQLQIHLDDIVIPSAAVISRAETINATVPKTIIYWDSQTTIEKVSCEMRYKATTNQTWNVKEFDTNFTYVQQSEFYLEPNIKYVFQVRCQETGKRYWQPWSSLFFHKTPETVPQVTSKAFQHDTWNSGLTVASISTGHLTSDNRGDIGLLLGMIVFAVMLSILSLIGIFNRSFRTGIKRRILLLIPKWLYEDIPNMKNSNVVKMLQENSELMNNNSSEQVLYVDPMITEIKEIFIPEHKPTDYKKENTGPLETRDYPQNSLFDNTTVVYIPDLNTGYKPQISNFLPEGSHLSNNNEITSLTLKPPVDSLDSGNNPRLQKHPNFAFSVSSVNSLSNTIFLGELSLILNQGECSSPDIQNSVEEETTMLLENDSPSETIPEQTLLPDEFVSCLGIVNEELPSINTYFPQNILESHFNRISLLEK
Kind of test: biochemical. Particulars: for Emax: read-out: % displacement (hIL-23R NIuc). An excerpt:
The compound binding affinity for IL-23R was estimated by the ability of compounds to displace a fluorophore-labelled reference compound from the human IL-23R. The assay principle relies on Bioluminescence Resonance Energy Transfer (BRET) between a fluorophore-labelled reference compound binding to the IL-23R part of a fusion protein consisting of the IL-23R fused to a Nanoluc luciferase enzyme (Nanoluc). The Nanoluc is placed in the N-terminus in close proximity to the binding domain of the ligand. Upon close proximity between the fluorophore of the fluorophore-labelled compound and the Nanoluc of the fusion protein, bioluminescence energy generated from conversion of a Nanoluc substrate, is transferred to the fluorophore resulting in an increase in BRET. In presence of an unlabelled compound, the unlabelled compound displaces the fluorophore-labelled peptide from its binding site resulting in a decrease in BRET. The concentration for which half of the fluorophore-labelled peptide is displaced by the unlabelled compound depends on the affinity of the compound for the IL-23R, and is termed the IC50 concentration.
The plasmid also contained a gene to confer resistance for the antibiotic hygromycin. A cell line stably expressing the Nluc-IL23R fusion protein was generated by transfection of HEK293 cells with the expression plasmid and selected with hygromycin for 3 weeks in Growth medium consisting of DMEM w/ Glutamax-I containing, 10% V/V FBS, 1% V/V P/S, 1 mM Sodium Pyruvate, and 1X NEAA, and 0.3 mg/mL hygromycin. The remaining cells were propagated and considered a stable expressing Nluc-IL23R fusion protein pool clone.
Cells expressing the Nluc-IL23R fusion protein were expanded in Growth medium and membranes prepared by homogenization of a cell pellet from 18 T175 flasks (4 °C in subsequent steps). The cell pellet was lysed Tris 10 mM, 7.5, 1 mM EDTA and protease inhibitors (Complete, Roche) and homogenized using a 15 mL glass-dounce by 50 strokes. The homogenate was spun at spin @1500 rpm for 10 min, the supernatant transferred to SV-34 tubes and spun at 40000g for 20 min at 4 °C to pellet the crude membranes. The supernatant was then removed, the pellet resuspended in 5 mL buffer containing 50 mM HEPES pH 7.4, 5 mM EGTA, and 5 mM MgCl2, and homogenized. Aliquots of the resuspended and homogenized membranes containing the Nluc-IL23R fusion protein were stored at -80 °C until use.
The plate was sealed with light impermeable plate seals, and incubated on an orbital shaker 400 rpm for 2 hours at room temperature. To determine the BRET ratio, the plate seal was removed and 25 µL of the Nanoluc substrate (Promega N1572) diluted 1:500 was added to each well and incubated for 1-2 minutes on an orbital shaker at 400 rpm. […] The BRET ratio was calculated as the fluorescence from the TAMRA/nanoluc bioluminescence.
Compound potency (IC50) and maximal displacement (% displacement) were estimated by computer-aided curve fitting using a 4-parameter logistic (4PL) non-linear model. […]
In this application, the inventors provide the data as IC50 values.

*1 amine or outer side, *2 acyl side, *3 side chain or, on linkers, in order; H or OH if unused. Where a SMILES comes first, the peptide text is derived from it. Bridges are numbered along the chain shown (N, C = ends). [ ]: non-standard residue; d: D form. hAad = O=C([C@H](CCCCC(=O)[*:3])N[*:1])[*:2]; X17 = O=C(C[C@@H](CCCN[*:3])N[*:2])[*:1]; 2Nal = N[C@@H](Cc1ccc2ccccc2c1)C(=O)O; AEF = NCCOc1ccc(C[C@H](N)C(=O)O)cc1; 3Pal = N[C@@H](Cc1cccnc1)C(=O)O; Aad = N[C@@H](CCCC(=O)O)C(=O)O; αMeL = CC(C)C[C@](C)(N)C(=O)O; dOrn = NCCC[C@@H](N)C(=O)O; dDab = NCC[C@@H](N)C(=O)O; Dab = NCC[C@H](N)C(=O)O

Turning to `CC(C)C[C@]1(C)NC(=O)[C@H](Cc2ccc3ccccc3c2)NC(=O)[C@H](Cc2ccc(OCCN)cc2)NC(=O)[C@@H]2CCC(=O)N[C@@H](CCCCCNC(=O)CC[C@@H](C(=O)N[C@@H](CCN)C(=O)N[C@@H](Cc3cccnc3)C(N)=O)NC1=O)C(=O)N[C@@H]([C@@H](C)O)C(=O)N[C@@H](C(C)C)C(=O)N[C@@H](Cc1c[nH]c3ccccc13)C(=O)N[C@@H](CCC(N)=O)C(=O)N2` [Compound 4, [hLys](1c)(6c)^†TVWQE(6c)[Y(2-aminoethoxy)][2-Nal][2-Me-Leu]E(1c)[Dab][3-(3-Pyridyl)-Ala]-[NH2]], the IC50 was found to be 0.029 nM and the Emax is 102%.

As for `CC(C)C[C@]1(C)NC(=O)[C@H](Cc2ccc3ccccc3c2)NC(=O)[C@H](Cc2ccc(OCCN)cc2)NC(=O)[C@@H]2CCC(=O)N[C@H](CCCCCNC(=O)CC[C@@H](C(=O)N[C@@H](CCN)C(=O)N[C@@H](Cc3cccnc3)C(N)=O)NC1=O)C(=O)N[C@@H]([C@@H](C)O)C(=O)N[C@@H](C(C)C)C(=O)N[C@@H](Cc1c[nH]c3ccccc13)C(=O)N[C@@H](CCC(N)=O)C(=O)N2` [Compound 5, [{d}hLys](1c)(6c)^†TVWQE(6c)[Y(2-aminoethoxy)][2-Nal][2-Me-Leu]E(1c)[Dab][3-(3-Pyridyl)-Ala]-[NH2]], the IC50 stood at 0.037 nM and the Emax worked out at 98%.

Take `CC(C)C[C@]1(C)NC(=O)[C@H](Cc2ccc3ccccc3c2)NC(=O)[C@H](Cc2ccc(OCCN)cc2)NC(=O)[C@@H]2CC(=O)N[C@H](CCCNC(=O)CCC[C@@H](C(=O)N[C@@H](CCN)C(=O)N[C@@H](Cc3cccnc3)C(N)=O)NC1=O)C(=O)N[C@@H]([C@@H](C)O)C(=O)N[C@@H](C(C)C)C(=O)N[C@@H](Cc1c[nH]c3ccccc13)C(=O)N[C@@H](CCC(N)=O)C(=O)N2` [Compound 8, [{d}Orn](1c)(6c)^†TVWQD(6c)[Y(2-aminoethoxy)][2-Nal][2-Me-Leu][hGlu](1c)[Dab][3-(3-Pyridyl)-Ala]-[NH2]] ([dOrn]TVWQD[AEF][2Nal][αMeL][Aad][Dab][3Pal]-NH2; lactam 1-10, N-6): the IC50 worked out at 0.52 nM.

For `CC(C)C[C@]1(C)NC(=O)[C@H](Cc2ccc3ccccc3c2)NC(=O)[C@H](Cc2ccc(OCCN)cc2)NC(=O)[C@@H]2CC(=O)N[C@H](CCNC(=O)CCCC[C@@H](C(=O)N[C@@H](CCN)C(=O)N[C@@H](Cc3cccnc3)C(N)=O)NC1=O)C(=O)N[C@@H]([C@@H](C)O)C(=O)N[C@@H](C(C)C)C(=O)N[C@@H](Cc1c[nH]c3ccccc13)C(=O)N[C@@H](CCC(N)=O)C(=O)N2` [Compound 9, [{d}Dab](1c)(6c)^†TVWQD(6c)[Y(2-aminoethoxy)][2-Nal][2-Me-Leu][2-Amino-6-carboxyhexanoyl](1 c)[Dab][3-(3-Pyridyl)-Ala]-[NH2]] ([dDab]TVWQD[AEF][2Nal][αMeL][hAad][Dab][3Pal]-NH2; lactam 1-10, N-6), the “% displacement (hIL-23R NIuc)” value is listed as 103% and the IC50 stood at 0.52 nM.

For `CC(C)C[C@]1(C)NC(=O)[C@H](Cc2ccc3ccccc3c2)NC(=O)[C@H](Cc2ccc(OCCN)cc2)NC(=O)[C@@H]2CC(=O)N[C@H](CCCNC(=O)CC[C@@H](C(=O)N[C@@H](CCN)C(=O)N[C@@H](Cc3cccnc3)C(N)=O)NC1=O)C(=O)N[C@@H]([C@@H](C)O)C(=O)N[C@@H](C(C)C)C(=O)N[C@@H](Cc1c[nH]c3ccccc13)C(=O)N[C@@H](CCC(N)=O)C(=O)N2` [Compound 10, [{d}Orn](1c)(6c)^†TVWQD(6c)[Y(2-aminoethoxy)][2-Nal][2-Me-Leu]E(1c)[Dab][3-(3-Pyridyl)-Ala]-[NH2]] ([dOrn]TVWQD[AEF][2Nal][αMeL]E[Dab][3Pal]-NH2; lactam 1-10, N-6), half-maximal inhibition (IC50) required 0.67 nM and the Emax is 107%.

On to `CC(C)C[C@]1(C)NC(=O)[C@H](Cc2ccc3ccccc3c2)NC(=O)[C@H](Cc2ccc(OCCN)cc2)NC(=O)[C@@H]2CC(=O)N[C@H](CCNC(=O)CC[C@@H](C(=O)N[C@@H](CCN)C(=O)N[C@@H](Cc3cccnc3)C(N)=O)NC1=O)C(=O)N[C@@H]([C@@H](C)O)C(=O)N[C@@H](C(C)C)C(=O)N[C@@H](Cc1c[nH]c3ccccc13)C(=O)N[C@@H](CCC(N)=O)C(=O)N2` [Compound 11, [{d}Dab](1c)(6c)^†TVWQD(6c)[Y(2-aminoethoxy)][2-Nal][2-Me-Leu]E(1c)[Dab][3-(3-Pyridyl)-Ala]-[NH2]] ([dDab]TVWQD[AEF][2Nal][αMeL]E[Dab][3Pal]-NH2; lactam 1-10, N-6), for which the IC50 turned out to be 0.37 nM and the Emax was found to be 104%.

As to `CC(C)C[C@]1(C)NC(=O)[C@H](Cc2ccc3ccccc3c2)NC(=O)[C@H](Cc2ccc(OCCN)cc2)NC(=O)[C@@H]2CC(=O)N[C@H](CCCNC(=O)CC[C@@H](C(=O)N[C@@H](CCN)C(=O)N[C@@H](Cc3cccnc3)C(N)=O)NC1=O)CC(=O)N[C@@H]([C@@H](C)O)C(=O)N[C@@H](Cc1c[nH]c3ccccc13)C(=O)N[C@@H](CCC(N)=O)C(=O)N2` [Compound 13, [{d}bLys](1c)(6c)^†TWQD(6c)[Y(2-aminoethoxy)][2-Nal][2-Me-Leu]E(1c)[Dab][3-(3-Pyridyl)-Ala]-[NH2]] (TWQD[AEF][2Nal][αMeL]E[Dab][3Pal]-NH2; linker N-4-8 via X17), the “% displacement (hIL-23R NIuc)” value is listed as 101% and the concentration for half-maximal inhibition (IC50) is 1.4 nM.

As to `CC(C)C[C@]1(C)NC(=O)[C@H](Cc2ccc3ccccc3c2)NC(=O)[C@H](Cc2ccc(OCCN)cc2)NC(=O)[C@@H]2CCC(=O)N[C@H](CCCNC(=O)CC[C@@H](C(=O)N[C@@H](CCN)C(=O)N[C@@H](Cc3cccnc3)C(N)=O)NC1=O)CC(=O)N[C@@H]([C@@H](C)O)C(=O)N[C@@H](Cc1c[nH]c3ccccc13)C(=O)N[C@@H](CCC(N)=O)C(=O)N2` [Compound 14, [{d}bLys](1c)(6c)^†TWQE(6c)[Y(2-aminoethoxy)][2-Nal][2-Me-Leu]E(1c)[Dab][3-(3-Pyridyl)-Ala]-[NH2]] (TWQE[AEF][2Nal][αMeL]E[Dab][3Pal]-NH2; linker N-4-8 via X17), the IC50 worked out at 0.44 nM and the Emax was 101%.

For the compound `CC(C)C[C@]1(C)NC(=O)[C@H](Cc2ccc3ccccc3c2)NC(=O)[C@H](Cc2ccc(OCCN)cc2)NC(=O)[C@@H]2CC(=O)N[C@H](CCNC(=O)CCCC[C@@H](C(=O)N[C@@H](CCN)C(=O)N[C@@H](Cc3cccnc3)C(N)=O)NC1=O)C(=O)N[C@@H]([C@@H](C)O)C(=O)N[C@@H](Cc1c[nH]c3ccccc13)C(=O)N[C@@H](CCC(N)=O)C(=O)N2` [Compound 15, [{d}Dab](1c)(6c)^†TWQD(6c)[Y(2-aminoethoxy)][2-Nal][2-Me-Leu][2-Amino-6-carboxyhexanoyl](1 c)[Dab][3-(3-Pyridyl)-Ala]-[NH2]] ([dDab]TWQD[AEF][2Nal][αMeL][hAad][Dab][3Pal]-NH2; lactam 1-9, N-5), the Emax is 105%.

Turning to `CC[C@H](C)[C@@H]1NC(=O)[C@@H]2CCCCNC(=O)CC[C@@H](C(=O)N[C@@H](CCN)C(=O)N[C@@H](Cc3cccnc3)C(N)=O)NC(=O)[C@](C)(C(C)C)NC(=O)[C@H](Cc3ccc4ccccc4c3)NC(=O)[C@H](Cc3ccc(C)cc3)NC(=O)[C@H](CCC(=O)N2)NC(=O)[C@H](CCC(N)=O)NC(=O)[C@H](Cc2c[nH]c3ccccc23)NC(=O)[C@H](C(C)C)NC1=O` [Compound 16, K(1c)(6c)^†IVWQE(6c)[F(4-Me)][2-Nal][2-Me-Val]E(1c)[Dab][3-(3-Pyridyl)-Ala]-[NH2]], half-maximal inhibition (IC50) was put at 0.099 nM and the Emax came out at 101%.
